Assay results taken from patent US20190275097A1, “Lycopene from Momordica Cochinchinnensis Spreng., methods and formulations” (priority 2018, published 2019).

Key:
[1] = Gac pulp consumed alone, 30-day feeding trial; cited from earlier work
caco cell = test: Bioaccessibility studies using in-vitro digestion/caco cell techniques; format: in vitro ADME; settings: carotenoids from Gac pulp
Description: The good absorption and transport of carotenoids after gac pulp consumption are probably due to its soft texture and to these high levels of fatty acids. […] This is in sharp contrast to other carotenoid rich fruits, which show a relatively low carotenoid bioavailability due to the lack of uptake enhancing lipids.

Row | Compound | bioavailability: change in the human circulation after feeding trial [1] | bioavailability (bioaccessibility), in-vitro digestion/caco cell (caco cell)
1 | CC1=C(/C=C/C(C)=C/C=C/C(C)=C/C=C/C=C(C)/C=C/C=C(C)/C=C/C2=C(C)CCCC2(C)C)C(C)(C)CCC1 [beta-carotene] | significant increase | high bioavailability
2 | CC(C)=CCC/C(C)=C/C=C/C(C)=C/C=C/C(C)=C/C=C/C=C(C)/C=C/C=C(C)/C=C/C=C(\C)CCC=C(C)C [lycopene] | significant increase | high bioavailability
